Holding throughout (type): cell-based
Assay [1] deals with A549 human lung carcinoma cells. Description: MTS cell viability assay, A549 human lung carcinoma cells. The conditions noted are these: A549, 4 h compound incubation, MTS, read-out: IC50 Values, Cancerous Cells, Lung A549.
Assay [2] relates to DLD-1 human colon carcinoma cells. Description: MTS cell viability assay, DLD-1 human colon carcinoma cells. The conditions noted are these: DLD-1, 4 h compound incubation, MTS, read-out: IC50 Values, Cancerous Cells, Colon DLD-1.
Assay [3] deals with DU-145 human prostate carcinoma cells. The assay is described as follows: MTS cell viability assay, DU-145 human prostate carcinoma cells. The conditions noted are these: DU-145, 4 h compound incubation, MTS, read-out: IC50 Values, Cancerous Cells, Prostate DU-145.
In assay [4] the test system is K-562 human leukemia cells. Description: MTS cell viability assay, K-562 human leukemia cells. The conditions noted are these: K562, K-562, 4 h compound incubation, MTS, read-out: IC50 Values, Cancerous Cells, Leukemia K-562.
The subject of assay [5] is PACA-2 human pancreatic carcinoma cells. The assay is described as follows: MTS cell viability assay, PACA-2 human pancreatic carcinoma cells. The conditions noted are these: PACA-2, 4 h compound incubation, MTS, read-out: IC50 Values, Cancerous Cells, Pancreas PACA-2.
The subject of assay [6] is NCM-460 normal colon epithelial cells. Description: MTS cell viability assay, NCM-460 normal colon epithelial cells. The conditions noted are these: for IC50: Homo sapiens, NCM460, NCM-460, 4 h compound incubation, MTS, read-out: IC50 Values, Normal Cells, Colon NCM-460; for Fold Selectivity (NCM-460/DLD1): ratio of IC50 NCM-460 / DLD1.

Consider `O=C1C(=O)c2ccccc2C2=C1SCC1(CCN(c3cnccn3)CC1)O2` [Compound 229, 1′-pyrazin-2-ylspiro[naphtho[1,2-b][1,4]oxathiine-2,4′-piperidine]-5,6-dione], for which the half-inhibitory concentration (IC50) in assay [1] is 22.6 µM; in assay [2], 4.27 µM; in assay [3], 4.63 µM; in assay [4], 4.14 µM; in assay [5], 4.33 µM; in assay [6], 12.8 µM. Moreover, the “Fold Selectivity (NCM-460/DLD1)” value in assay [6] came out at 3.0.

Turning to `O=C1C(=O)c2ccccc2C2=C1SCC1(CCN(C3CCCC3)CC1)O2` [Compound 138, 1′-cyclopentylspiro[naphtho[1,2-b][1,4]oxathiine-2,4′-piperidine]-5,6-dione], the IC50 in assay [1] was 7.8 µM; in assay [2], 1.43 µM; in assay [3], 2.52 µM; in assay [4], 1.43 µM; in assay [5] it was 1.48 µM; in assay [6], 3.55 µM. The “Fold Selectivity (NCM-460/DLD1)” value in assay [6] is 2.5.

As to `O=C1C(=O)c2ccccc2C2=C1SCC1(CCN(C(=O)c3ccco3)CC1)O2` [Compound 39, 1′-(2-furoyl)spiro[naphtho[1,2-b][1,4]oxathiine-2,4′-piperidine]-5,6-dione], the IC50 amounted to 7.69 µM in assay [1]; 1.45 µM in assay [2]; 3.86 µM in assay [3]; 1.87 µM in assay [4]; 1.52 µM in assay [5]; 6.35 µM in assay [6]. In addition, in assay [6], the “Fold Selectivity (NCM-460/DLD1)” value is recorded as 4.4.

As to `CCc1ccc(OCC(O)CN2CCC3(CC2)CSC2=C(O3)c3ccccc3C(=O)C2=O)cc1` (centres unmarked) [Compound 170, 1′-[3-(4-ethylphenoxy)-2-hydroxypropyl]spiro[naphtho[1,2-b][1,4]oxathiine-2,4′-piperidine]-5,6-dione], the IC50 in assay [1] is 4.69 µM; in assay [2] it was 1.49 µM; in assay [3], 1.42 µM; in assay [4], 5.31 µM; in assay [5], 1.37 µM; in assay [6] it was 14 µM. Besides, the “Fold Selectivity (NCM-460/DLD1)” value in assay [6] is 9.4.

Turning to `O=C1C(=O)c2ccccc2C2=C1SCC1(CCN(C(=O)c3ccccc3I)CC1)O2` [Compound 49, 1′-(2-iodobenzoyl)spiro[naphtho[1,2-b][1,4]oxathiine-2,4′-piperidine]-5,6-dione], the IC50 in assay [1] amounted to 5.58 µM; in assay [2], 2.87 µM; in assay [3] it was 4.11 µM; in assay [4], 1.8 µM; in assay [5] it was 2.39 µM; in assay [6], 7.72 µM. Also, in assay [6], the “Fold Selectivity (NCM-460/DLD1)” value came to 2.7.

With `CC(C)CCN1CCC2(CC1)CSC1=C(O2)c2ccccc2C(=O)C1=O` [Compound 132, 1′-(3-methylbutyl)spiro[naphtho[1,2-b][1,4]oxathiine-2,4′-piperidine]-5,6-dione], the IC50 worked out at 6.62 µM in assay [1]; 1.53 µM in assay [2]; 4.05 µM in assay [3]; 2.86 µM in assay [4]; 1.94 µM in assay [5]; 9.74 µM in assay [6]. Further, the “Fold Selectivity (NCM-460/DLD1)” value in assay [6] is given as 6.4.

For the molecule `C=CCCN1CCC2(CC1)CSC1=C(O2)c2ccccc2C(=O)C1=O` [Compound 143, 1′-but-3-en-1-ylspiro[naphtho[1,2-b][1,4]oxathiine-2,4′-piperidine]-5,6-dione], the half-maximal inhibitory concentration (IC50) in assay [1] came out at 7.39 µM; in assay [2], 2.14 µM; in assay [3], 4.26 µM; in assay [4], 3.29 µM; in assay [5] it was 2.5 µM; in assay [6] it was 6.39 µM. Besides, the “Fold Selectivity (NCM-460/DLD1)” value in assay [6] is given as 3.0.

On to `O=C1C(=O)c2ccccc2C2=C1SCC1(CCN(CC(O)COc3ccccc3)CC1)O2` (centres unmarked) [Compound 158, 1′-(2-hydroxy-3-phenoxypropyl)spiro[naphtho[1,2-b][1,4]oxathiine-2,4′-piperidine]-5,6-dione], for which the concentration for half-maximal inhibition (IC50) in assay [1] came to 5.6 µM; in assay [2], 1.48 µM; in assay [3], 1.71 µM; in assay [4], 1.44 µM; in assay [5], 1.32 µM; in assay [6] it was 4.91 µM. In assay [6], the “Fold Selectivity (NCM-460/DLD1)” value is on record as 3.3.

Consider `O=C1C(=O)c2ccccc2C2=C1SCC1(CCN(CCCC(F)(F)F)CC1)O2` [Compound 141, 1′-(4,4,4-trifluorobutyl)spiro[naphtho[1,2-b][1,4]oxathiine-2,4′-piperidine]-5,6-dione], for which the IC50 in assay [1] is 5.01 µM; in assay [2], 1.95 µM; in assay [3], 4.01 µM; in assay [4], 2.39 µM; in assay [5], 2.44 µM; in assay [6], 8.13 µM. Further, the “Fold Selectivity (NCM-460/DLD1)” value in assay [6] turned out to be 4.2.

Take `CC(C)CN1CCC2(CC1)CSC1=C(O2)c2ccccc2C(=O)C1=O` [Compound 126, 1′-isobutylspiro[naphtho[1,2-b][1,4]oxathiine-2,4′-piperidine]-5,6-dione]: the half-inhibitory concentration (IC50) was determined as 5 µM in assay [1]; 3.12 µM in assay [2]; 4.05 µM in assay [3]; 1.63 µM in assay [4]; 1.44 µM in assay [5]; 5.26 µM in assay [6]. The “Fold Selectivity (NCM-460/DLD1)” value in assay [6] is recorded as 1.7.

As to `CC(O)(CN1CCC2(CC1)CSC1=C(O2)c2ccccc2C(=O)C1=O)c1ccccc1` (centres unmarked) [Compound 177, 1′-(2-hydroxy-2-phenylpropyl)spiro[naphtho[1,2-b][1,4]oxathiine-2,4′-piperidine]-5,6-dione], the IC50 in assay [1] stood at 14.9 µM; in assay [2], 6.22 µM; in assay [3], 4.55 µM; in assay [4] it was 8.99 µM; in assay [5] it was 4.18 µM; in assay [6], 20.5 µM. For the same molecule, the “Fold Selectivity (NCM-460/DLD1)” value in assay [6] is 3.3.

Regarding `Cc1ccc(CN2CCC3(CC2)CSC2=C(O3)c3ccccc3C(=O)C2=O)cc1` [Compound 120, 1′-(4-methylbenzyl)spiro[naphtho[1,2-b][1,4]oxathiine-2,4′-piperidine]-5,6-dione], the 50% inhibitory concentration (IC50) in assay [1] amounted to 9.04 µM; in assay [2] it was 4.23 µM; in assay [3] it was 9.27 µM; in assay [4], 5.47 µM; in assay [5] it was 4.35 µM; in assay [6], 10.4 µM. The “Fold Selectivity (NCM-460/DLD1)” value in assay [6] stood at 2.5.

Regarding `C=CC(C)(O)CN1CCC2(CC1)CSC1=C(O2)c2ccccc2C(=O)C1=O` (centres unmarked) [Compound 159, 1′-(2-hydroxy-2-methylbut-3-en-1-yl)spiro[naphtho[1,2-b][1,4]oxathiine-2,4′-piperidine]-5,6-dione], the half-maximal inhibitory concentration (IC50) in assay [1] turned out to be 14.3 µM; in assay [2] it was 4.47 µM; in assay [3], 5.03 µM; in assay [4], 4.13 µM; in assay [5], 4.03 µM; in assay [6], 10.2 µM. The “Fold Selectivity (NCM-460/DLD1)” value in assay [6] came out at 2.3.

In the case of `O=C1C(=O)c2ccccc2C2=C1SCC1(CCN(CCOc3ccccc3)CC1)O2` [Compound 140, 1′-(2-phenoxyethyl)spiro[naphtho[1,2-b][1,4]oxathiine-2,4′-piperidine]-5,6-dione], the IC50 came out at 21.5 µM in assay [1]; 3.37 µM in assay [2]; 4.2 µM in assay [3]; 4.26 µM in assay [4]; 3.93 µM in assay [5]; 12.2 µM in assay [6]. Moreover, in assay [6], the “Fold Selectivity (NCM-460/DLD1)” value is listed as 3.6.

For the origin of these results see patent US7902354B2, “Lapachone compounds and methods of use thereof” (ArQule, Inc., priority 2006, dated 2011).
